This note sets out measurements from PubChem BioAssay (NCI).

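Cultured in 96-well plates, cells were exposed to test compound for 48 hours across five concentrations. The concentration for 50% growth inhibition is given as GI50. TGI marks complete inhibition of growth.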 Some results are limits rather than exact numbers.

Some test systems named below: SF-539 CNS; LOX IMVI melanoma; U251 CNS; IGROV1 ovarian; TK-10 renal; UACC-257 melanoma; HT29 colon; SN12C renal; NCI-H522 lung; ACHN renal.
What all share (assay): NCI tumour cell line growth inhibition, 48 h

For `CCOC(=O)c1nc2cc(C(F)(F)F)ccc2[n+]([O-])c1C`, the GI50 with SF-539 CNS, in the experiment on LOX IMVI melanoma, in the experiment with U251 CNS, with IGROV1 ovarian, with TK-10 renal and in the experiment with UACC-257 melanoma was > 100 µM each time. Further, the GI50 in the experiment with HT29 colon, in the experiment on SN12C renal, in the experiment with NCI-H522 lung and in the experiment on ACHN renal was > 100 µM throughout. Besides, the TGI in the experiment with SF-539 CNS, in the experiment on LOX IMVI melanoma, with U251 CNS, in the experiment on IGROV1 ovarian, in the experiment on TK-10 renal and in the experiment with UACC-257 melanoma was > 100 µM throughout. Further, the TGI in the experiment with HT29 colon, in the experiment with SN12C renal, in the experiment with NCI-H522 lung and in the experiment on ACHN renal was > 100 µM throughout.

On to `COc1ccc(/C(=N/O)c2cc(OC)c(OC)c(OC)c2)c(OC)c1N`, for which the GI50 in the experiment with SF-539 CNS was 2.98 µM; with LOX IMVI melanoma it was 7.28 µM; with U251 CNS it was 5.65 µM; in the experiment on IGROV1 ovarian, 7.71 µM; with TK-10 renal, > 100 µM; with HT29 colon, 3.54 µM. Also, the GI50 was 15.4 µM with SN12C renal, 4.02 µM in the experiment with NCI-H522 lung and 17.8 µM with ACHN renal. The TGI with SF-539 CNS, in the experiment with LOX IMVI melanoma, in the experiment with U251 CNS, in the experiment with IGROV1 ovarian, in the experiment on TK-10 renal and in the experiment with HT29 colon was > 100 µM each time. Moreover, the TGI with SN12C renal, with NCI-H522 lung and with ACHN renal was > 100 µM each time.

In the case of `CC/C=C\C[C@H](O)C/C=C1/C(=O)C=C[C@@H]1C/C=C\CCCC(=O)NC`, the GI50 in the experiment on LOX IMVI melanoma was 0.317 µM; in the experiment on U251 CNS, 1.3 µM; in the experiment on IGROV1 ovarian it was 2.93 µM; in the experiment with TK-10 renal, 2.85 µM; with UACC-257 melanoma, 2.08 µM; in the experiment with HT29 colon, 1.52 µM. Besides, the GI50 is 2.33 µM in the experiment on SN12C renal, 1.54 µM in the experiment on NCI-H522 lung and 1.56 µM with ACHN renal. Besides, the TGI in the experiment on LOX IMVI melanoma came out at 1.43 µM; in the experiment with U251 CNS it was 4.26 µM; in the experiment with IGROV1 ovarian, 10.7 µM; with TK-10 renal it was 6.49 µM; with UACC-257 melanoma it was 5.32 µM; with HT29 colon, 3.25 µM. Further, the results for the TGI with SN12C renal, with NCI-H522 lung and in the experiment on ACHN renal were 8.5 µM, 3.77 µM and 3.21 µM, respectively.

As to `C#CC(=O)OCC#CCOC(=O)C#C`, the TGI was 28.8 µM in the experiment on SF-539 CNS; 2.63 µM with LOX IMVI melanoma; 35.6 µM in the experiment with U251 CNS; 37.9 µM with TK-10 renal; > 100 µM in the experiment on UACC-257 melanoma; 42.7 µM with HT29 colon. Also, the TGI turned out to be 82.3 µM with SN12C renal, 9.81 µM with NCI-H522 lung and 33 µM in the experiment with ACHN renal.

Take `Cc1cnc(SCCN2CCN(C)CC2)nc1-c1cc2ccccc2s1`: the TGI is 25.1 µM with SF-539 CNS; 18.6 µM with LOX IMVI melanoma; 21.7 µM with U251 CNS; 33.1 µM in the experiment on TK-10 renal; 23.5 µM in the experiment with UACC-257 melanoma; 18.7 µM in the experiment with HT29 colon. Also, the TGI in the experiment with SN12C renal stood at 21.3 µM; with NCI-H522 lung, 29.6 µM.

In the case of `Brc1ccc(C2SCc3nc4ccccc4n32)cc1` (configuration not stated), the TGI was found to be 34.3 µM with SF-539 CNS; 21 µM in the experiment with LOX IMVI melanoma; 25.2 µM in the experiment on U251 CNS; 27.3 µM with IGROV1 ovarian; 29.1 µM in the experiment with TK-10 renal; 20.9 µM with HT29 colon. Also, the values for the TGI in the experiment with SN12C renal, with NCI-H522 lung and in the experiment with ACHN renal were 27.7 µM, 12.4 µM and 40.2 µM, respectively.

On to `COC(=O)C(=O)C(CC(=O)Nc1cccc(C(F)(F)F)c1)C(=O)OC` (configuration not stated), for which the TGI in the experiment with SF-539 CNS, with LOX IMVI melanoma, with U251 CNS, with IGROV1 ovarian, in the experiment on TK-10 renal and in the experiment with SN12C renal was > 100 µM each time. Further, the TGI with NCI-H522 lung and in the experiment with ACHN renal was > 100 µM throughout.

As for `CCN(CC)CCC(=O)/C=C/c1ccc(C)cc1`, the TGI in the experiment with SF-539 CNS turned out to be 19.1 µM; with LOX IMVI melanoma, 14.6 µM; with U251 CNS, 22.3 µM; in the experiment with IGROV1 ovarian, 30 µM; in the experiment on TK-10 renal, 19.3 µM; in the experiment on UACC-257 melanoma, 30.6 µM. In addition, the TGI came out at 33 µM in the experiment on HT29 colon, 24.8 µM in the experiment with SN12C renal and 27.5 µM with ACHN renal.

On to `Cc1ccc(C)c2c(N=Nc3ccccc3[N+](=O)[O-])c(O)[nH]c12`, for which the TGI in the experiment on SF-539 CNS, in the experiment on LOX IMVI melanoma, with U251 CNS, in the experiment with IGROV1 ovarian, in the experiment on TK-10 renal and in the experiment with UACC-257 melanoma was > 100 µM each time. The TGI in the experiment on SN12C renal, in the experiment on NCI-H522 lung and in the experiment with ACHN renal was > 100 µM each time.

On to `O=C(NC(=O)c1cc2cc(Br)cc(Br)c2oc1=O)Oc1ccccc1`, for which the TGI in the experiment with SF-539 CNS, in the experiment on LOX IMVI melanoma, in the experiment with U251 CNS, in the experiment on IGROV1 ovarian, in the experiment on TK-10 renal and in the experiment with UACC-257 melanoma was > 100 µM throughout. Further, the TGI in the experiment on HT29 colon was > 100 µM; with SN12C renal, > 100 µM; with ACHN renal, 72 µM.

With `CC(C)(C)N=CN(C=C(c1ccccc1)c1ccccc1)C1CCCCC1`, the TGI in the experiment with SF-539 CNS is > 100 µM; in the experiment with LOX IMVI melanoma, 92.3 µM; with U251 CNS, > 100 µM; in the experiment on IGROV1 ovarian it was > 100 µM; in the experiment on TK-10 renal, > 100 µM; in the experiment on UACC-257 melanoma, > 100 µM. The TGI in the experiment with HT29 colon, with SN12C renal and with ACHN renal was > 100 µM throughout.

In the case of `CC(=O)c1cccc(NC(=O)c2ccc(NC3=C(Cl)C(=O)N(Cc4ccccc4)C3=O)cc2)c1`, the GI50 with SF-539 CNS was 11.4 µM; with LOX IMVI melanoma it was 13.9 µM; in the experiment on U251 CNS, 17.9 µM; in the experiment with UACC-257 melanoma, 18.7 µM; in the experiment with HT29 colon, 27.3 µM; in the experiment on SN12C renal it was 1.92 µM. The values for the GI50 in the experiment on NCI-H522 lung and in the experiment with ACHN renal were 2.45 µM and 22.7 µM, respectively. Also, the TGI in the experiment on SF-539 CNS is 28.7 µM; in the experiment on LOX IMVI melanoma it was 33.8 µM; in the experiment on U251 CNS it was 44.5 µM; in the experiment on UACC-257 melanoma, 72.4 µM; in the experiment on HT29 colon, > 100 µM; in the experiment with SN12C renal it was 9.63 µM. Moreover, the TGI came to 19.4 µM with NCI-H522 lung and 49.1 µM in the experiment on ACHN renal.
